Assay results published in patent US11780901B2, “Analogues of parathyroid hormone (1-34) that function as agonists of the parathyroid hormone receptor-1 and display modified activity profiles” (Wisconsin Alumni Research Foundation, priority 2013, dated 2023).
Starred links: 1 amine or outer side, 2 acyl side, 3 side chain; linkers in the order of their positions; H or OH if unused. Non-standard residues stand in square brackets, D forms with d. Residues, ends and D or L forms follow the SMILES beside them. X10 = NC(=O)CC[C@H](CN[*:1])C(=O)[*:2]

Columns and labels:
Format in all cases: cell-based
[1] = test system: PTHR1 and PTHR2; test: Tolerance pattern of β residues for PTHR1 and PTHR2 activation; parameters: key: “*” denotes potent PTHR1-selective agonism; “#” denotes potent PTHR2-selective agonism; “*#” denotes potent agonism of both PTHR1 and PTHR2; details: PTHR1 vs PTHR2 agonism
Text: Enhanced selectivity via double α→β replacement.

[2] = biological target: T1, PTHR1 (Homo sapiens, UniProt Q03431); test: PTHR1 activation, cAMP production (GloSensor) in HEK293 cells; parameters: expressed in transfected cells
T1 sequence (Q03431 27-593): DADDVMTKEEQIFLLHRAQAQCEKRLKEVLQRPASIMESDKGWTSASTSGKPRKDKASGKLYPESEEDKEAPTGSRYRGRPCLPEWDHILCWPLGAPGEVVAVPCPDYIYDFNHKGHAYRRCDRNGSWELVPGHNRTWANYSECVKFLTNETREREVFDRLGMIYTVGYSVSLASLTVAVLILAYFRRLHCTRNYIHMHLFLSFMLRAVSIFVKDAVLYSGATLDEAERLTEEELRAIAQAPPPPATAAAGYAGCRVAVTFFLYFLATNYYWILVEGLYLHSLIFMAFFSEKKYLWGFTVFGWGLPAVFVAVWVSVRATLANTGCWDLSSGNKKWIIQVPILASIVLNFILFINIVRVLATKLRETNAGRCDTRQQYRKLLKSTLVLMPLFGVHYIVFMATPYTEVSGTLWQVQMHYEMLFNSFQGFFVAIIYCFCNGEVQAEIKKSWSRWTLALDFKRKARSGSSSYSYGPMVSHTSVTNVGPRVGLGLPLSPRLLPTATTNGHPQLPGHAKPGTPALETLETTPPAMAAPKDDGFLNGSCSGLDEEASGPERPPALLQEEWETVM
Text: The assays employ HEK-293 cells that have been engineered to express the appropriate receptor. GloSensor-based detection of cAMP provides a read-out of receptor activation.
For PTHR1 activation and all the binding data, data represent mean±s.e.m from three independent measurements; For PTHR2 activation, data represent mean±s.e.m from four independent measurements. Curves were fit to the data using a four-parameter sigmoidal dose-response equation.
For cAMP dose-response assays, monolayers of confluent HEK 293 cells were pre-incubated with buffer containing d-luciferin (0.5 mM) in 96 well plates at room temperature until a stable baseline level of luminescence was established (30 min). Varying concentrations of agonist were then added, and the time course of luminescence response was recorded using a Perkin Elmer plate reader following α/β-peptide addition.

[3] = biological target: PTHR2 (Homo sapiens, UniProt P49190); test: PTHR2 activation, cAMP production (GloSensor) in HEK293 cells; parameters: expressed in transfected cells
Text: The assays employ HEK-293 cells that have been engineered to express the appropriate receptor. GloSensor-based detection of cAMP provides a read-out of receptor activation. […] (Carter, P. H. et al. Actions of the Small Molecule Ligands SW106 and AH-3960 on the Type-1 Parathyroid Hormone Receptor. Molecular Endocrinology 29, 307-321 (2015).)
FIGS. 10A and 10B depict dose-response curves of PTHR1 activation (FIG. 10A) and PTHR2 activation (FIG. 10B) in HEK293 cells stably expressing PTHR1 or PTHR2. For PTHR1 activation and all the binding data, data represent mean±s.e.m from three independent measurements; For PTHR2 activation, data represent mean±s.e.m from four independent measurements. Curves were fit to the data using a four-parameter sigmoidal dose-response equation.

PTHR2, sequence (P49190 25-550): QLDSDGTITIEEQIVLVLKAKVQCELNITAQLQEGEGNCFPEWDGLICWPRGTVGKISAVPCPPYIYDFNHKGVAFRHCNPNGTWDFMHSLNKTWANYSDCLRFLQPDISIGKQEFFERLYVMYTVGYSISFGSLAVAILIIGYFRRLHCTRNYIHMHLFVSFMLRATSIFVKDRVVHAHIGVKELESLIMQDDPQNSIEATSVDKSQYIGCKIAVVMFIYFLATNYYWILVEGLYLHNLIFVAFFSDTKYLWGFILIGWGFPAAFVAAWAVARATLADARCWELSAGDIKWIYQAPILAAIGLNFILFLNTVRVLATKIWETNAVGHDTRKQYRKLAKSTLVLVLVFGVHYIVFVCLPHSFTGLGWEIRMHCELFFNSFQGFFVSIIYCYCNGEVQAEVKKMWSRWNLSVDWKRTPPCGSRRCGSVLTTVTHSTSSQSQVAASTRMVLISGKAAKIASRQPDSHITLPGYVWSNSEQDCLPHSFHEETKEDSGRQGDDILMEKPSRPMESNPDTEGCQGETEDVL

| Structure (SMILES) | Tolerance Pattern of β AA [1] | EC50 ([2]; HEK-293 cells, GloSensor cAMP, read-out: EC50 (nM) of PTHR1 Activation) [nM] | PTHR1 Activation: Derivative EC50/PTH EC50 ([2]; normalized to EC50 of PTH(1-34)-NH2 ([…]), cAMP production) | EC50 ([3]; HEK-293 cells, GloSensor cAMP, read-out: EC50 (nM) of PTHR2 Activation) [nM] | PTHR2 Activation: Derivative EC50/PTH EC50 ([3]; normalized to EC50 of PTH(1-34)-NH2 ([…] printed), cAMP production) |
| --- | --- | --- | --- | --- | --- |
| CC[C@H](C)[C@H](NC(=O)[C@H](CCC(=O)O)NC(=O)[C@H](CO)NC(=O)C[C@@H](NC(=O)[C@@H](N)CO)C(C)C)C(=O)N[C@@H](CCC(N)=O)C(=O)N[C@@H](CC(C)C)C(=O)N[C@@H](CCSC)C(=O)N[C@@H](Cc1c[nH]cn1)C(=O)N[C@@H](CC(N)=O)C(=O)N[C@@H](CC(C)C)C(=O)NCC(=O)N[C@@H](CCCCN)C(=O)N[C@@H](Cc1c[nH]cn1)C(=O)N[C@@H](CC(C)C)C(=O)N[C@@H](CC(N)=O)C(=O)N[C@@H](CO)C(=O)N[C@@H](CCSC)C(=O)N[C@@H](CCC(=O)O)C(=O)N[C@@H](CCCNC(=N)N)C(=O)N[C@H](C(=O)N[C@@H](CCC(=O)O)C(=O)N[C@@H](Cc1c[nH]c2ccccc12)C(=O)N[C@@H](CC(C)C)C(=O)N[C@@H](CCCNC(=N)N)C(=O)N[C@@H](CCCCN)C(=O)N[C@@H](CCCCN)C(=O)N[C@@H](CC(C)C)C(=O)N[C@@H](CCC(N)=O)C(=O)N[C@@H](CC(=O)O)C(=O)N[C@H](C(=O)N[C@@H](Cc1c[nH]cn1)C(=O)N[C@@H](CC(N)=O)C(=O)N[C@@H](Cc1ccccc1)C(N)=O)C(C)C)C(C)C [SEQ. ID. NO: 39] | *# |  |  |  |  |
| CC[C@H](C)[C@H](NC(=O)[C@H](CCC(=O)O)NC(=O)C[C@H](CO)NC(=O)[C@@H](NC(=O)[C@@H](N)CO)C(C)C)C(=O)N[C@@H](CCC(N)=O)C(=O)N[C@@H](CC(C)C)C(=O)N[C@@H](CCSC)C(=O)N[C@@H](Cc1c[nH]cn1)C(=O)N[C@@H](CC(N)=O)C(=O)N[C@@H](CC(C)C)C(=O)NCC(=O)N[C@@H](CCCCN)C(=O)N[C@@H](Cc1c[nH]cn1)C(=O)N[C@@H](CC(C)C)C(=O)N[C@@H](CC(N)=O)C(=O)N[C@@H](CO)C(=O)N[C@@H](CCSC)C(=O)N[C@@H](CCC(=O)O)C(=O)N[C@@H](CCCNC(=N)N)C(=O)N[C@H](C(=O)N[C@@H](CCC(=O)O)C(=O)N[C@@H](Cc1c[nH]c2ccccc12)C(=O)N[C@@H](CC(C)C)C(=O)N[C@@H](CCCNC(=N)N)C(=O)N[C@@H](CCCCN)C(=O)N[C@@H](CCCCN)C(=O)N[C@@H](CC(C)C)C(=O)N[C@@H](CCC(N)=O)C(=O)N[C@@H](CC(=O)O)C(=O)N[C@H](C(=O)N[C@@H](Cc1c[nH]cn1)C(=O)N[C@@H](CC(N)=O)C(=O)N[C@@H](Cc1ccccc1)C(N)=O)C(C)C)C(C)C [SEQ. ID. NO: 40] | # |  |  |  |  |
| CC[C@H](C)[C@H](NC(=O)[C@H](CCC(=O)O)NC(=O)[C@H](CO)NC(=O)[C@@H](NC(=O)[C@@H](N)CO)C(C)C)C(=O)NC[C@@H](CCC(N)=O)C(=O)N[C@@H](CC(C)C)C(=O)N[C@@H](CCSC)C(=O)N[C@@H](Cc1c[nH]cn1)C(=O)N[C@@H](CC(N)=O)C(=O)N[C@@H](CC(C)C)C(=O)NCC(=O)N[C@@H](CCCCN)C(=O)N[C@@H](Cc1c[nH]cn1)C(=O)N[C@@H](CC(C)C)C(=O)N[C@@H](CC(N)=O)C(=O)N[C@@H](CO)C(=O)N[C@@H](CCSC)C(=O)N[C@@H](CCC(=O)O)C(=O)N[C@@H](CCCNC(=N)N)C(=O)N[C@H](C(=O)N[C@@H](CCC(=O)O)C(=O)N[C@@H](Cc1c[nH]c2ccccc12)C(=O)N[C@@H](CC(C)C)C(=O)N[C@@H](CCCNC(=N)N)C(=O)N[C@@H](CCCCN)C(=O)N[C@@H](CCCCN)C(=O)N[C@@H](CC(C)C)C(=O)N[C@@H](CCC(N)=O)C(=O)N[C@@H](CC(=O)O)C(=O)N[C@H](C(=O)N[C@@H](Cc1c[nH]cn1)C(=O)N[C@@H](CC(N)=O)C(=O)N[C@@H](Cc1ccccc1)C(N)=O)C(C)C)C(C)C [SEQ. ID. NO: 27] (H-SVSEI[X10]LMHNLGKHLNSMERVEWLRKKLQDVHNF-NH2; N-terminus assumed) |  | 7.83 ± 0.4 | 20.61 | 51.9 ± 8.82 | 59.70 |
